Assay results as given in patent publication US20260337193A1, “SMALL MOLECULE INHIBITORS OF UBIQUITIN SPECIFIC PROTEASE 1 (USP1) AND USES THEREOF” (Insilico Medicine IP Limited, priority 2023, published 2026).

Key:
[1] = target: T1, Human recombinant USP1/UAF1 (Homo sapiens, UniProt O94782); assay: Enzymatic assay: USP1/UAF1 deubiquitination of Ubiquitin Rhodamine 110 (kinetic fluorescence); assay type: biochemical; details: 2 nM USP1/UAF1, 15 min preincubation at RT, HEPES pH 8.0, 500 nM Ubiquitin Rhodamine 110
T1 construct: purchased R & D E-568-050; host or cells: baculovirus infected Sf21 cells
Protocol: Example A1: Enzymatic Assay
Human recombinant USP1/UAF1 expressed in baculovirus infected Sf21 cells were used (R & D, E-568-050). Test compound and/or vehicle was incubated with 2 nM of USP1/UAF1 in modified HEPES buffer pH 8.0 for 15 minutes at RT. The reaction was initiated by addition of 500 nM of Ubiquitin Rhodamine 110 (R & D, U-555-050) for kinetic reading. Slope change of fluorescence intensity was read spectrofluorimetrically at 485 nm/535 nm. Dose response of test compounds or reference compound ML-323 was analyzed by nonlinear regression of GraphPad prism software.

MDA-MB-436 cells = assay: MDA-MB-436 breast cancer cell proliferation assay (CellTiter-Glo); assay type: cell-based; details: Homo sapiens, 168 h, 7 days, 37° C.
Protocol: Example A2: MDA-MB-436 Breast Cancer Cell Culture
MDA-MB-436 cells were grown in Leibovitz's L-15 medium with 10 μg/ml insulin, 16 μg/ml glutathione, 10% FBS. Cells were passaged at subconfluence after trypsinization and maintained in incubators at 37° C. in a humidified atmosphere with 5% CO2.
Example A3: MDA-MB-436 Breast Cancer Cell Proliferation Assay
Cell proliferation was determined using CellTiter-Glo® Luminescent Cell Viability Assay (Promega, #G7573). MDA-MB-436 cells were seeded in 384-well plates and allowed to attach for 24 h. Compounds were added into 384-well plate by ECHO, and incubated at 37° C. in a humidified atmosphere with 5% CO2. After 7 days, CellTiter-Glo® was added into 384 well plates, contents were mixed on an orbital shaker at 400 g for 2 min before centrifuging the plate for 2 min at 1000 rpm. After incubation at RT for 30 min, luminescence was read on envision.

T1 sequence (O94782 whole entry): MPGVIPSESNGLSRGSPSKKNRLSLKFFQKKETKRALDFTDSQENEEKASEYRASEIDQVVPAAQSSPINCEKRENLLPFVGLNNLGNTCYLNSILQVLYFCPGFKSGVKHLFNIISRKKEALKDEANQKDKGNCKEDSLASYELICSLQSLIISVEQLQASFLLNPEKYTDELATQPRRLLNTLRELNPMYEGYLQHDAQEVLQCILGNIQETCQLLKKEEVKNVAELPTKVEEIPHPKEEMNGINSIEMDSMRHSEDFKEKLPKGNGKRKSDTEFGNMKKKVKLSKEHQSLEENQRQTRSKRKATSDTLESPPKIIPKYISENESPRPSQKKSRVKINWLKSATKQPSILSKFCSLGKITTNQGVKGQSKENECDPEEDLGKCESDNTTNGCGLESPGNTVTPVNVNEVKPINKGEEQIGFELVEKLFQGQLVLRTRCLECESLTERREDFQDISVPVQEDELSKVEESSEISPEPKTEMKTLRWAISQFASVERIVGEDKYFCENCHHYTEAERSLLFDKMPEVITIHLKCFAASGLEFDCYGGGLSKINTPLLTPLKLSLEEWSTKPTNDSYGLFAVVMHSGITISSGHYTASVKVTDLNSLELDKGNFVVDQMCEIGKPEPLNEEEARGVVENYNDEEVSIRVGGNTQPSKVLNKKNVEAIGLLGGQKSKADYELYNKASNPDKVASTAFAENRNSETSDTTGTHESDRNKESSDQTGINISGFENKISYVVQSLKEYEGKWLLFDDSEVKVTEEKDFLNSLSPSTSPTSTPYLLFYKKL
T1 sequence (Q8TAF3 whole entry partner): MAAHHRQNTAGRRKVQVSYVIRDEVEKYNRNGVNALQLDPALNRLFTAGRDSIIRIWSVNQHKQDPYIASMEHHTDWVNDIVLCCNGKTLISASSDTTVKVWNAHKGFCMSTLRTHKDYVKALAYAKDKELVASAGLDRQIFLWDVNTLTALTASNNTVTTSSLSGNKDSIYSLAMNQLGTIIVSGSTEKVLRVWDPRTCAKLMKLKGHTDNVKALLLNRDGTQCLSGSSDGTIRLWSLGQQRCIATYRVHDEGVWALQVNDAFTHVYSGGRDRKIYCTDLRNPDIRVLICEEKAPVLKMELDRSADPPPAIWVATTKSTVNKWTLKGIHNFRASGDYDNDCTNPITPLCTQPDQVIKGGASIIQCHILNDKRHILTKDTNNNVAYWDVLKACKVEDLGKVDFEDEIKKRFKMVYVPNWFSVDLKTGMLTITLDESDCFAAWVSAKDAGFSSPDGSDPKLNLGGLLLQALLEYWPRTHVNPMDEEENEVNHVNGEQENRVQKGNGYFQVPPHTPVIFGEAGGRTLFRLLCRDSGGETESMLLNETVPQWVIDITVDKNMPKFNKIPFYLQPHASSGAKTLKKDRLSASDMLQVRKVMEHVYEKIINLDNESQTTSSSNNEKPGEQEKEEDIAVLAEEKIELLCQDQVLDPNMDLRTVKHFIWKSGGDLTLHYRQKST

`COc1ncnc(C2CC2)c1-n1nc(C(F)(F)F)c2c1CN(c1ccc(-c3nc(C(F)(F)F)cn3C)cn1)CC2` [Compound 23, 1-(4-cyclopropyl-6-methoxypyrimidin-5-yl)-6-(5-(1-methyl-4-(trifluoromethyl)-1H-imidazol-2-yl)pyridin-2-yl)-3-(trifluoromethyl)-4,5,6,7-tetrahydro-1H-pyrazolo[3,4-c]pyridine] gave an IC50 [1] of 50 to 1000 nM and an IC50 (MDA-MB-436 cells) of 50 to 1000 nM.

Work on `Cc1nn(-c2c(OC(F)F)ncnc2C2CC2)c2c1CCN(c1ccc(-c3nc(C(F)(F)F)cn3C)cn1)C2` [Compound 24, 1-(4-cyclopropyl-6-(difluoromethoxy)pyrimidin-5-yl)-3-methyl-6-(5-(1-methyl-4-(trifluoromethyl)-1H-imidazol-2-yl)pyridin-2-yl)-4,5,6,7-tetrahydro-1H-pyrazolo[3,4-c]pyridine] yielded an IC50 [1] of 50 to 1000 nM and an IC50 (MDA-MB-436 cells) of 50 to 1000 nM.

In the case of `COc1ncnc(C2CC2)c1-n1nc(C)c2c1CN(c1ccc(-c3nc(C(F)(F)F)cn3C)c(F)n1)CC2` [Compound 25, 1-(4-cyclopropyl-6-methoxypyrimidin-5-yl)-6-(6-fluoro-5-(1-methyl-4-(trifluoromethyl)-1H-imidazol-2-yl)pyridin-2-yl)-3-methyl-4,5,6,7-tetrahydro-1H-pyrazolo[3,4-c]pyridine], the IC50 [1] is reported as < 50 nM and the IC50 (MDA-MB-436 cells) is reported as < 50 nM.

In the case of `CC(C)c1ncccc1-c1nccc2c1CC(c1ccc(-c3nc(C(F)(F)F)cn3C)cc1)C2` (centres unmarked) [Compound 26, 1-(2-isopropylpyridin-3-yl)-6-(4-(1-methyl-4-(trifluoromethyl)-1H-imidazol-2-yl)phenyl)-6,7-dihydro-5H-cyclopenta[c]pyridine], the IC50 [1] is reported as < 50 nM and the IC50 (MDA-MB-436 cells) is reported as 50 to 1000 nM.

In the case of `Cc1cnn(C(C)C)c1-n1nc(C)c2c1CN(c1ccc(-c3nc(C(F)(F)F)cn3C)cn1)CC2` [Compound 27, 1-(1-isopropyl-4-methyl-1H-pyrazol-5-yl)-3-methyl-6-(5-(1-methyl-4-(trifluoromethyl)-1H-imidazol-2-yl)pyridin-2-yl)-4,5,6,7-tetrahydro-1H-pyrazolo[3,4-c]pyridine], the IC50 [1] is reported as < 50 nM and the IC50 (MDA-MB-436 cells) is reported as < 50 nM.

`COc1ncnc(C2CC2)c1-n1nc(Cl)c2c1CN(c1ccc(-c3nc(C(F)(F)F)cn3C)cn1)CC2` [Compound 28, 3-chloro-1-(4-cyclopropyl-6-methoxypyrimidin-5-yl)-6-(5-(1-methyl-4-(trifluoromethyl)-1H-imidazol-2-yl)pyridin-2-yl)-4,5,6,7-tetrahydro-1H-pyrazolo[3,4-c]pyridine] was tested, and the IC50 [1] was < 50 nM and the IC50 (MDA-MB-436 cells) was < 50 nM.

In the case of `CCn1cc(C(F)(F)F)nc1-c1cnc(N2CCc3c(C)nn(-c4c(C)cnn4C(C)C)c3C2)cn1` [Compound 29, 6-(5-(1-ethyl-4-(trifluoromethyl)-1H-imidazol-2-yl)pyrazin-2-yl)-1-(1-isopropyl-4-methyl-1H-pyrazol-5-yl)-3-methyl-4,5,6,7-tetrahydro-1H-pyrazolo[3,4-c]pyridine], the IC50 [1] is reported as < 50 nM and the IC50 (MDA-MB-436 cells) is reported as < 50 nM.

With `Cc1cnn(C(C)C)c1-n1nc(C)c2c1CN(c1ccc(-c3nc(C(F)(F)F)cn3C)c(F)c1)CC2` [Compound 30, 6-(3-fluoro-4-(1-methyl-4-(trifluoromethyl)-1H-imidazol-2-yl)phenyl)-1-(1-isopropyl-4-methyl-1H-pyrazol-5-yl)-3-methyl-4,5,6,7-tetrahydro-1H-pyrazolo[3,4-c]pyridine] the IC50 [1] was < 50 nM and the IC50 (MDA-MB-436 cells) was < 50 nM.

`COc1ncnc(C2CC2)c1-c1nccc2c1CC(c1ccc(-c3nc(C(F)(F)F)cn3C)cn1)C2` (centres unmarked) [Compound 31, 1-(4-cyclopropyl-6-methoxypyrimidin-5-yl)-6-(5-(1-methyl-4-(trifluoromethyl)-1H-imidazol-2-yl)pyridin-2-yl)-6,7-dihydro-5H-cyclopenta[c]pyridine] showed an IC50 [1] of 50 to 1000 nM and an IC50 (MDA-MB-436 cells) of 1000 to 10000 nM.

`CCn1cc(C(F)(F)F)nc1-c1cnc(N2CCc3c(C)nn(-c4c(OC)ncnc4C4CC4)c3C2)cn1` [Compound 32, 1-(4-cyclopropyl-6-methoxypyrimidin-5-yl)-6-(5-(1-ethyl-4-(trifluoromethyl)-1H-imidazol-2-yl)pyrazin-2-yl)-3-methyl-4,5,6,7-tetrahydro-1H-pyrazolo[3,4-c]pyridine] was tested, and the IC50 [1] was < 50 nM and the IC50 (MDA-MB-436 cells) was 50 to 1000 nM.
